This test relates to KB. The test can be described thus: Cytotoxicity against human KB cells after 72 hrs. The test is classed as functional, cell-based.
In the case of `COc1cc([C@@H]2c3cc4c(cc3[C@@H](O[C@@H]3O[C@@H]5CO[C@@H](C)O[C@H]5[C@H](O)[C@H]3O)[C@H]3COC(=O)[C@H]23)OCO4)cc(OC)c1O` [ETOPOSIDE], the IC50 stood at 2 µM. As for `C=C1CC[C@@H]([C@H]2C[C@H]3C(C)(C)CCC[C@]3(C)c3cc(O)c(C(C)C)cc32)[C@]2(C)CC[C@@H](C(C)(C)O)C[C@@H]12` [FERRUGIEUDESMOL], the figure is 11.4 µM; as for `CC(C)c1cc2c(cc1O)[C@@]1(C)CCCC(C)(C)[C@@H]1C[C@H]2CC1=C[C@@H]2[C@@H](CC1)[C@](C)(O)CC[C@H]2C(C)C` [FERRUGICADINOL], 14.1 µM.

The values above are taken from ChEMBL document CHEMBL1158108, “C35 terpenoids from the bark of Calocedrus macrolepis var. formosana with activity against human cancer cell lines” (J Nat Prod, 2006).
